Results taken from patent publication US20250186627A1, “RADIOLABELED COMPOUNDS TARGETING THE PROSTATE-SPECIFIC MEMBRANE ANTIGEN” (PROVINCIAL HEALTH SERVICES AUTHORITY, priority 2022, published 2025).
*1 amine or outer side, *2 acyl side, *3 side chain or, on linkers, in order; H or OH if unused. Where a SMILES comes first, the peptide text is derived from it. [ ]: non-standard residue; d: D form. The star is where a group is joined. AadUreaLys(Nε) = O=C(O)CCC[C@H](NC(=O)N[C@@H](CCCCN*)C(=O)O)C(=O)O; X4 = O=C(N[C@@H](CCCCN*)C(=O)O)N[C@@H](C[C@@H](F)C(=O)O)C(=O)O; Butanoyl(4-(4-NO2Ph)) = O=C(CCCc1ccc([N+](=O)[O-])cc1)*; DOTA = O=C(O)CN1CCN(CC(=O)O)CCN(CC(=O)*)CCN(CC(=O)O)CC1; Ala(9-anthryl) = N[C@@H](Cc1c2ccccc2cc2ccccc12)C(=O)O; Butanoyl(4-(4-MeO-phenyl)) = COc1ccc(CCCC(=O)*)cc1; X1 = O=C(C1CCC(CN[*:1])CC1)[*:2]; X3 = O=C(C1CCC(N[*:1])CC1)[*:2]

Target: T1, PSMA (Homo sapiens, UniProt Q04609)
T1 construct: endogenous in cells; host or cells: LNCaP cells
Test: In vitro PSMA competitive binding assay, LNCaP cells, [18F]DCFPyL radioligand
Details: [18F]DCFPyL 0.1 nM, read-out: PSMA binding affinity (Ki)
Experimental: Inhibition constants (Ki) to PSMA were measured by in vitro competition binding assays using [^18F]DCFPyL as the radioligand. LNCaP cells which were plated onto a 24-well poly-D-lysine coated plate for 48 h (400,000/well). Growth medium was removed and replaced with HEPES buffered saline (50 mM HEPES, pH 7.5, 0.9% sodium chloride). After 1 h, [^18F]DCFPyL (0.1 nM) was added to each well (in triplicate) containing varied concentrations ([…]) of tested compounds The assay mixtures were incubated for 1 h at 37° C. with gentle agitation followed by two washes with cold HEPES buffered saline. A trypsin solution (0.25%, 400 μL) was then added to each well to harvest the cells. Radioactivity was measured by gamma counting and Ki values calculated using the ‘one site—fit Ki’ built-in model in Prism 8 (GraphPad).

T1 sequence (Q04609 whole entry): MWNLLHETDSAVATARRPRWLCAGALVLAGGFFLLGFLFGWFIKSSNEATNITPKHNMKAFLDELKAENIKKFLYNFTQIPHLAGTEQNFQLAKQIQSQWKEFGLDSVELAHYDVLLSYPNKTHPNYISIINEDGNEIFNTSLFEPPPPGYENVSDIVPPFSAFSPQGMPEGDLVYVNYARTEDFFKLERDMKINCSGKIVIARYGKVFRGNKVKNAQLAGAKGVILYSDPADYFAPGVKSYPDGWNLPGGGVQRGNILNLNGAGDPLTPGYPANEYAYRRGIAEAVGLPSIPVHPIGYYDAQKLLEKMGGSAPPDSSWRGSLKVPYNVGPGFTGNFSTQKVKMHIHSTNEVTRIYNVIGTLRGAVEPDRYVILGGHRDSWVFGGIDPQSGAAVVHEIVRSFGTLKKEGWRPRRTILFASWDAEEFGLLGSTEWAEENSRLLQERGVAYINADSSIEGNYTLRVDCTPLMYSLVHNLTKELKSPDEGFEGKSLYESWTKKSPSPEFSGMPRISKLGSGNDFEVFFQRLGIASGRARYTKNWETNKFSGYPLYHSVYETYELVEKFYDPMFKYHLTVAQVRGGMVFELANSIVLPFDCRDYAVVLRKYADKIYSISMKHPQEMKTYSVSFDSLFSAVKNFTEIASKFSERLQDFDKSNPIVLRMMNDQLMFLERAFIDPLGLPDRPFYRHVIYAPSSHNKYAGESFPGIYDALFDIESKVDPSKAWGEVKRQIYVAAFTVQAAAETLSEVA

Ki [nM] | Structure (SMILES)
2.08 | COc1ccc(CCCC(=O)NCC(=O)N[C@@H](CCCCNC(=O)COCCOCCNC(=O)CN2CCN(CC(N)=O)CCN(CC(=O)O)CCN(CC(=O)O)CC2)C(=O)NCC2CCC(C(=O)N[C@@H](Cc3c4ccccc4cc4ccccc34)C(=O)NCCCC[C@H](NC(=O)N[C@@H](CCCC(=O)O)C(=O)O)C(=O)O)CC2)cc1 (stereo partly drawn) [CCZ02005]
0.48 ± 0.1 | COc1ccc(CCCC(=O)NCC(=O)N[C@@H](CCCCNC(=O)CN2CCN(CC(=O)O)CCN(CC(=O)O)CCN(CC(=O)O)CC2)C(=O)NCC(=O)NCC2CCC(C(=O)N[C@@H](Cc3c4ccccc4cc4ccccc34)C(=O)NCCCC[C@H](NC(=O)N[C@@H](C[C@@H](F)C(=O)O)C(=O)O)C(=O)O)CC2)cc1 (stereo partly drawn) [CCZ02008] ({Butanoyl(4-(4-MeO-phenyl))}-GK(DOTA)G[X1][Ala(9-anthryl)]-X4)
1.09 ± 0.3 | COc1ccc(CCCC(=O)NCC(=O)N[C@@H](CCCCNC(=O)CN2CCN(CC(=O)O)CCN(CC(=O)O)CCN(CC(=O)O)CC2)CC(=O)NCC2CCC(C(=O)N[C@@H](Cc3c4ccccc4cc4ccccc34)C(=O)NCCCC[C@H](NC(=O)N[C@@H](CCCC(=O)O)C(=O)O)C(=O)O)CC2)cc1 (stereo partly drawn) [CCZ02015]

Second part, the compound before the results:

Structure (SMILES) | Ki [nM]
O=C(O)CCC[C@H](NC(=O)N[C@@H](CCCCNC(=O)[C@H](Cc1c2ccccc2cc2ccccc12)NC(=O)C1CCC(NC(=O)CN2CCN(CC(=O)O)CCN(CC(=O)O)CCN(CC(=O)O)CC2)CC1)C(=O)O)C(=O)O (stereo partly drawn) [CCZ02012] | 1.67
O=C(O)CCC[C@H](NC(=O)N[C@@H](CCCCNC(=O)[C@H](Cc1c2ccccc2cc2ccccc12)NC(=O)C1CCC(NC(=O)CN2CCN(CC(=O)O)CCN(CC(=O)O)CCN(CC(=O)O)CC2)CC1)C(=O)O)C(=O)O (stereo partly drawn) [CCZ02013] | 1.53 ± 0.21
O=C(O)CCC[C@H](NC(=O)N[C@@H](CCCCNC(=O)[C@H](Cc1c2ccccc2cc2ccccc12)NC(=O)C1CCC(NC(=O)CNC(=O)[C@H](CCCCNC(=O)CN2CCN(CC(=O)O)CCN(CC(=O)O)CCN(CC(=O)O)CC2)NC(=O)CNC(=O)CCCc2ccc([N+](=O)[O-])cc2)CC1)C(=O)O)C(=O)O (stereo partly drawn) [CCZ02021] ({Butanoyl(4-(4-NO2Ph))}-GK(DOTA)G[X3][Ala(9-anthryl)]-{AadUreaLys(Nε)}) | 5.71
